Test results reported in the NIST ThermoML archive (doi:10.1021/je700260f).

Conditions: 293.15 K, Liquid, Vibrating tube method

FC(C(F)(F)F)C(F)(F)F [1,1,1,2,3,3,3-heptafluoropropane]
Conditions | mass density [kg/m3]
11786 kPa | 1474.1
11826 kPa | 1474.2
11860 kPa | 1474.3
11894 kPa | 1474.6
11934 kPa | 1474.7
11967 kPa | 1474.9
12017 kPa | 1475.1
12045 kPa | 1475.2
12079 kPa | 1475.4
12119 kPa | 1475.5
12156 kPa | 1475.8
12195 kPa | 1475.9
12235 kPa | 1476.1
12280 kPa | 1476.3
12314 kPa | 1476.4
12354 kPa | 1476.7
12388 kPa | 1476.9
12422 kPa | 1476.9
12468 kPa | 1477.1
12502 kPa | 1477.4
12549 kPa | 1477.5
12591 kPa | 1477.7
12626 kPa | 1477.9
12670 kPa | 1478
12710 kPa | 1478.2
12745 kPa | 1478.3
12888 kPa | 1479
12980 kPa | 1479.5
13020 kPa | 1479.6
13072 kPa | 1479.9
13099 kPa | 1480
13131 kPa | 1480.1
13163 kPa | 1480.3
13195 kPa | 1480.5
13233 kPa | 1480.6
13264 kPa | 1480.7
13307 kPa | 1480.8
13344 kPa | 1481.1
13371 kPa | 1481.1
13408 kPa | 1481.4
13440 kPa | 1481.4
13489 kPa | 1481.8
13521 kPa | 1481.8
13564 kPa | 1482
13606 kPa | 1482.2
13649 kPa | 1482.4
13687 kPa | 1482.5
13719 kPa | 1482.6
13758 kPa | 1482.8
13797 kPa | 1482.9
13824 kPa | 1483.2
13857 kPa | 1483.3
13891 kPa | 1483.4
13930 kPa | 1483.6
13963 kPa | 1483.7
14065 kPa | 1484.2
14101 kPa | 1484.3
14128 kPa | 1484.5
14165 kPa | 1484.6
14192 kPa | 1484.8
14223 kPa | 1484.9
14249 kPa | 1484.9
14285 kPa | 1485
14316 kPa | 1485.3
14339 kPa | 1485.3
14370 kPa | 1485.5
14403 kPa | 1485.6
14431 kPa | 1485.7
14462 kPa | 1485.9
14489 kPa | 1486
14520 kPa | 1486.2
14557 kPa | 1486.3
14598 kPa | 1486.4
14635 kPa | 1486.6
14673 kPa | 1486.7
14705 kPa | 1487
14732 kPa | 1486.9
14759 kPa | 1487.1
14795 kPa | 1487.3
14831 kPa | 1487.5
14872 kPa | 1487.5
14913 kPa | 1487.8
14940 kPa | 1487.9
14973 kPa | 1488
15005 kPa | 1488.2
15038 kPa | 1488.2
15080 kPa | 1488.6
15103 kPa | 1488.6
15144 kPa | 1488.7
15181 kPa | 1488.9
15209 kPa | 1488.8
15237 kPa | 1489.1
15270 kPa | 1489.2
15298 kPa | 1489.5
15335 kPa | 1489.4
15363 kPa | 1489.7
15398 kPa | 1489.7
15425 kPa | 1489.9
15467 kPa | 1490.1
15504 kPa | 1490.2
15527 kPa | 1490.4
15569 kPa | 1490.6
15611 kPa | 1490.8
